Laboratory results: patent US12460207B2, “Inhibiting APE2 expression in a subject treated with a drug agent that causes increased APE2 expression” (The Cleveland Clinic Foundation, priority 2021, dated 2025)
d = 2'-deoxy (DNA); m = 2'-O-methyl

Columns and labels:
APE2 [1] = assay: PK/PD study in C57B6 mice, APE2 expression by western blot; type: in vivo, mouse
Method: Further optimization of the ASO drug. Potential ASO toxicities fall into two categories: (i) hybridization-dependent toxicities due to on- or off-target events, and (ii) hybridization-independent toxicities, such as excessive immunostimulation due to non-antisense effects of the ASO. We performed the PK/PD study using C57B6 mice. We IP injected six weeks old male mice with 20 mg/kg APE2-ASO and checked the APE2 expression by western blot analysis. We found the APE2 could be knock down in two days and restored in 4 days after injection (FIG. 9).

[2] = tested on: CreERT2+/−, APE2LSL/− mice; assay: APE2-ASO treatment of transgenic CreERT2+/−, APE2LSL/− mice (APE2 AKI mouse model); type: in vivo; conditions: for kidney function: treated 4 weeks, once per week
Source text: (§1) APE2 conditional transgenic mice were generated by inserting a transcription-translation STOP cassette flanked by LoxP sites (LSL) at the start of the APE2 locus. An FRT-mediated recombination ColA1 3′ untranslated region locus was used first to generate APE2LSL mice. The STOP cassette prevents expression of the APE2 gene. To remove the STOP cassette and activate APE2 expression in vivo, the APE2LSL mice were mated with Rosa26-Cre-Estrogen Receptor-T2 (CreERT2+/−) mice (18; #8463, The Jackson Laboratory), in which the ERT moiety retains Cre recombinase activity in the cytoplasm until tamoxifen administration releases this block and promotes recombination of genomic LoxP sites. Three-week-old APE2LSL/+CreERT2+/− mice and CreERT2+/− mice were injected intraperitoneally with 10 mg/kg 4-OH-tamoxifen for 3 consecutive days. Creatinine and EPO were measured using mouse creatinine (Crystal Chem) and EPO (R&D Systems) ELISA kits. We used heterozygous male (APE2−/Y) mice (12) bearing a mutated APE2 allele on the X chromosome, in which a genomic region from the 3′-region of its intron 5 to the 5′-region in exon 6 was replaced by a neo cassette by crossing heterozygous APE2 female (APE2−/+) mice with wild-type C57BL/6 mice. […] Using this breeding strategy, there is the potential risk and uncertainty of interference with the germline DNA in the male and female APE2 knockout progeny because APE2 has already been knocked out in the male parent (APE2−/Y) and because the function of APE2 is to be responsible for DNA damage repair (13). All mice were of C57B6 genetic background. All experiments involving animals were pre-approved by the Cleveland Clinic IACUC (Institutional Animal Care and Use Committee).
(§2) Mouse kidney biopsy specimens were submerged in 2.5% EM grade glutaraldehyde in 2.5% glutaraldehyde/4% paraformaldehyde in 0.2 mol/L sodium cacodylate buffer (pH 7.4) at 4° C. immediately after sectioning and fixed at 4° C. overnight. After washing three times for 5 minutes in sodium cacodylate buffer (0.2 mol/L, pH 7.3), kidney fragments were fixed in 1% aqueous osmium tetroxide for 60 minutes at 4° C., then washed twice for 5 minutes with sodium cacodylate buffer and rinsed once with maleate buffer (pH 5.1, 5 minutes). After changing to 1% uranyl acetate in maleate buffer, the samples were stained for 60 minutes; the uranyl acetate was removed. The samples were then washed three times for 5 minutes with maleate buffer and then dehydrated with ascending grades of ethanol, and finally embedded in Epon resin (Electron Microscopy Science). […]

APE2 [3] = assay: Western blot of kidney protein expression in platinum drug-treated mice: APE2; type: in vivo, mouse; conditions: for APE2 expression in kidney cells: 40 mg/kg single intraperitoneal dose
Method: (§3) Ten-week-old wild-type C57BL/6J mice weighing 25-28 g were purchased from the Jackson Laboratory. […] An identical volume of saline (0.9% NaCl) was administered intraperitoneally to control mice.
(§4) Total protein samples were isolated with RIPA buffer, fractionated on 4%-12% Bis-Tris polyacrylamide gels (Thermo Fisher Scientific), and electroblotted onto PVDF membranes (Millipore). Membranes were blocked with 5% nonfat milk and incubated overnight with rabbit anti-APE2 polyclonal antibody (Bioss, #bs-6587R), rabbit anti-APE1 polyclonal antibody (Abnova, #H00000328-D02), mouse anti-LIG3 monoclonal antibody (Santa Cruz Biotechnology, #sc-56089), rabbit anti-MRE11 monoclonal antibody (Cell Signaling Technology, #4847), rabbit anti-CtIP polyclonal antibody (Bethyl Laboratories, #300-488A), or goat anti-β-actin polyclonal antibody (Santa Cruz Biotechnology, #sc-1615) overnight at 4° C. Membranes were then washed and incubated with HRP-linked anti-rabbit IgG secondary antibody (Cell Signaling Technology, #7074) or HRP-linked anti-mouse IgG secondary antibody (Cell Signaling Technology, #7076S). […] Detection by chemiluminescence was carried out by means of a SuperSignal West Femto Maximum Sensitivity Substrate kit (Thermo Fisher Scientific) with β-actin as a loading control.

APE2 [4] = assay: IHC staining for APE2 in kidney biopsies of C-AKI patients; type: in vivo, human; conditions: two patients with C-AKI versus normal kidney biopsies
Method: Kidney specimens were obtained from healthy donors and from cisplatin-induced AKI patients in accordance with Cleveland Clinic Foundation Institutional Review Board approval requirements, and written informed consent was obtained in compliance with the Helsinki. Formalin-fixed paraffin-embedded tissue sections were de-paraffinized and then incubated with rabbit anti-APE2 polyclonal antibody (Bioss, bs-6587R), rabbit anti-cleaved caspase-3monoclonal antibody (Cell Signaling Technology, #9664S), rabbit anti-MYH9 antibody (GeneTex GTX113236), or rabbit anti-phosphor-histone H2A.X(Ser139) polyclonal antibody (Cell Signaling Technology, #2577) at 4° C. overnight. After incubation with horseradish peroxidase (HRP)-conjugated goat anti-rabbit secondary antibody, signal was detected using a DAB Substrate kit (Abcam, ab64238) according the manufacturer's instructions. Images were obtained by means of a phase-contrast microscope (Leica DM2000 LED) and a digital camera (Leica DMC 2900).

primary PTCs = assay: Oxygen consumption (Seahorse Cell Mito Stress) of PTCs from cisplatin-treated mice; type: cell-based, mouse; conditions: PTCs of cisplatin-treated APE2 KO mice versus WT
Method: (§5) HEK293T and HK2 cells were purchased from the ATCC. Mouse anti-Prominin-1 MicroBeads (130-092-333, Miltenyi Biotec) were used to isolate PTCs from APE2LSL/− CreERT2+/− mice, Cre-ERT2+/− mice, C57B6 mice, and APE2 KO mice. The primary PTCs were cultured in DMEM/Nutrient Mixture F-12 (DMEM/F12) containing 10% FBS, 100 U/mL penicillin, and 100 μg/mL streptomycin. HEK293T and HK2 cells were routinely genotyped using the Human Cell Line Genotyping System (Promega) and were used within their 6 times passage. Mouse PTCs were genotyped using the primer for transgenic mice and were used within their 3 times passage. All cell lines were used Mycoplasma tested negative.
The functional activity of PTC mitochondria was measured by using a Seahorse XF24 Analyzer and a Seahorse XF Cell Mito Stress Test Assay (Agilent Technologies). Mitochondrial functionality was examined by direct measurement of the OCR of cells according to the manufacturer's instructions. Briefly, 8×10^4 PTCs were seeded into 24-well plates and allowed to attach overnight. The cells were subjected to OCR detection by sequential injections of oligomycin, carbonyl cyanide p-trifluoromethoxyphenylhydrazone (FCCP), and a combination of rotenone and antimycin A. Basal OCR=measured OCR level before the injection of oligomycin. Adenosine triphosphate (ATP) synthesis-linked OCR (ATP-linked)=basal OCR−OCR following oligomycin injection. […]

PCNA = assay: Western blot of kidney protein expression in cisplatin-treated mice: PCNA; type: in vivo, mouse; conditions: cisplatin 15 mg/kg, 3 days after treatment
[5] = tested on: wild-type (WT) and APE2 KO mice; conditions: mouse, in vivo, 15 mg/kg
Method: as §3, §1, §2

CTIP = assay: Western blot of kidney protein expression in cisplatin-treated mice: CTIP; type: in vivo, mouse; conditions: cisplatin 15 mg/kg, 3 days after treatment
Method: as §3, §4

APE2 [6] = assay: Immunofluorescence of APE2 subcellular localization in primary mouse PTCs after cisplatin; type: cell-based; conditions: primary mouse PTCs treated with cisplatin
Method: as §5
(§6) Immunofluorescence staining was performed as described previously (20). The slides of HK2 cells were incubated sequentially with rabbit anti-APE2 antibody (GeneTex), goat anti-rabbit Alexa Fluor 488-conjugated secondary antibody (Abcam), mouse anti-MYH9 antibody (GeneTex), goat anti-mouse Alexa Fluor 647-conjugated secondary antibody (Abcam), and rabbit anti-COXIV antibody Alexa Fluor […]-conjugated antibody (Santa Cruz Biotechnology). […]

APE2 [7] = assay: Immunofluorescence of APE2 subcellular localization in HK2 cells after cisplatin; type: cell-based, human; conditions: HK2 cells treated with cisplatin
Method: as §5, §6

APE1 = assay: Western blot of kidney protein expression in cisplatin-treated mice: APE1; type: in vivo, mouse; conditions: cisplatin 15 mg/kg, 3 days after treatment
Method: as §3, §4

MRE11 = assay: Western blot of kidney protein expression in cisplatin-treated mice: MRE11; type: in vivo, mouse; conditions: cisplatin 15 mg/kg, 3 days after treatment
Method: as §3, §4

[8] = within 24 hours of administration; cited from earlier work
LIG3 = assay: Western blot of kidney protein expression in cisplatin-treated mice: LIG3; type: in vivo, mouse; conditions: cisplatin 15 mg/kg, 3 days after treatment
Method: as §3, §4

[9] = 20 mg/kg IP, six weeks old male C57B6 mice

mU*mG*mU*C*C*T*T*A*C*A*G*A*A*mG*mG*mU (UGUCCTTACAGAAGGU; sugars from the 5' end m3 d10 m3, all phosphorothioate, methylation of C not given here) [APE2-ASO-3]
time to APE2 knock down after injection (APE2 [1]; [9]): two
time to restored APE2 expression after injection (APE2 [1]; [9]): 4 days
APE2 level (APE2 [1]; wild type C57B6 mice): knock down
plasma creatine level ([2]; compared with saline treated controls, P<0.01): significantly reduced
mitochondrial morphology (EM) ([2]; compared with vehicle treated mice, age of eight weeks): remained relatively normal
kidney function [2]: protected
kidney function ([2]; listed as APE2-ASO gapmer drug): protected kidney function

O=C1[O][Pt]2([NH][C@@H]3CCCC[C@H]3[NH]2)[O]C1=O [oxaliplatin]
APE2 expression in kidney cells (APE2 [3]): slight upregulation

N.N.O=C([O-])C1(C(=O)[O-])CCC1.[Pt+2] [carboplatin]
APE2 expression in kidney cells (APE2 [3]): slight upregulation

N.N.[Cl][Pt][Cl] [cisplatin]
APE2 protein in PTCs by IHC (APE2 [4]): dramatically upregulated
OCR in PTCs (primary PTCs): significantly increased
PCNA expression in kidney (PCNA): downregulated
kidney damage [5]: only minor kidney damage
kidney weight [5]: decreased kidney weight
mitochondrial fragmentation (EM) [5]: less mitochondrial fragmentation
renal damage [5]: most severe
CTIP expression in kidney (CTIP): slightly upregulated
APE2 subcellular localization (APE2 [6]): enriched in the cytoplasm, especially within mitochondria
APE2 subcellular localization (APE2 [7]): enriched in the cytoplasm, especially within mitochondria
APE1 expression in kidney (APE1): slightly upregulated
APE2 expression in kidney (APE2 [3]; cisplatin 15 mg/kg single intraperitoneal dose, kidney collected 3 days after treatment): the most highly upregulated protein
MRE11 expression in kidney (MRE11): slightly upregulated
cisplatin excreted via the urine [8]: 50%-80%
LIG3 expression in kidney (LIG3): slightly upregulated
